This is an account of results in PubChem BioAssay (NCI).

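A five-concentration, 48-hour dose response in 96-well plates underlies each endpoint, interpolated linearly between surrounding concentrations. TGI: total growth inhibition.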

Among the test systems are A498 renal; ACHN renal; BT-549 breast; HCT-15 colon; K-562 leukemia; KM12 colon; MALME-3M melanoma; MDA-MB-435; MOLT-4 leukemia; OVCAR-4 ovarian; PC-3 prostate; SF-539 CNS; SK-MEL-2 melanoma; SK-MEL-28 melanoma; SK-OV-3 ovarian; SNB-75 CNS; SR leukemia; T-47D breast; TK-10 renal; U251 CNS.
Common to all, as to assay: growth of human tumour cells (NCI), 48 h

Regarding `CNC(=S)NNC1=NCCCN1`, the TGI in the assay on A498 renal, with ACHN renal, in the assay on BT-549 breast, with HCT-15 colon, with K-562 leukemia and with KM12 colon was over 100 µM in each case. The TGI in the assay with MALME-3M melanoma, in the assay on MDA-MB-435, with MOLT-4 leukemia, in the assay on OVCAR-4 ovarian, with PC-3 prostate and in the assay with SF-539 CNS was over 100 µM in each case. For the same molecule, the TGI in the assay with SK-MEL-2 melanoma, with SK-MEL-28 melanoma, in the assay with SK-OV-3 ovarian, in the assay with SNB-75 CNS, with SR leukemia and with T-47D breast was over 100 µM in each case. The TGI in the assay with TK-10 renal and with U251 CNS was over 100 µM throughout.

Take `O=[N+]([O-])c1nccn1CCCN=c1c2ccccc2n(O)c2ccccc12`: the TGI in the assay on A498 renal, in the assay on ACHN renal, with BT-549 breast, in the assay with HCT-15 colon, in the assay on K-562 leukemia and in the assay on KM12 colon was over 100 µM in each case. Moreover, the TGI in the assay with MALME-3M melanoma, in the assay on MDA-MB-435, in the assay on MOLT-4 leukemia, in the assay with OVCAR-4 ovarian, with PC-3 prostate and in the assay on SF-539 CNS was over 100 µM throughout. Also, the TGI in the assay on SK-MEL-2 melanoma, in the assay with SK-MEL-28 melanoma, in the assay with SK-OV-3 ovarian, in the assay on SNB-75 CNS, in the assay on SR leukemia and in the assay on T-47D breast was over 100 µM throughout. For the same molecule, the TGI in the assay on TK-10 renal and in the assay with U251 CNS was over 100 µM throughout.

With `COc1ccc(-c2cn3c(nc4ccccc43)c(C)n2)cc1`, the TGI in the assay with A498 renal, in the assay on ACHN renal, in the assay with BT-549 breast, in the assay on HCT-15 colon, with K-562 leukemia and with KM12 colon was over 100 µM throughout. Besides, the TGI in the assay with MALME-3M melanoma, in the assay on MDA-MB-435, with MOLT-4 leukemia, in the assay with OVCAR-4 ovarian, with PC-3 prostate and with SF-539 CNS was over 100 µM in each case. The TGI is over 100 µM with SK-MEL-2 melanoma; over 100 µM with SK-MEL-28 melanoma; 39.2 µM in the assay on SK-OV-3 ovarian; over 86.1 µM with SNB-75 CNS; over 100 µM in the assay with SR leukemia; over 67.3 µM with T-47D breast. Besides, the TGI in the assay with TK-10 renal and in the assay on U251 CNS was over 100 µM in each case.

Take `CC(=O)OCC1OC(O[C@@H]2C[C@H]3C(C)(C)[C@H](OC(C)=O)CC[C@]3(C)[C@H]3CC[C@@]45C[C@H](O)C[C@H](C)[C@@H]4CC=C5[C@@]32C)C(O)C(O)C1O` (stereo not given in full): the TGI was 15.8 µM in the assay with A498 renal; 18.5 µM with ACHN renal; 12.7 µM with BT-549 breast; 25.5 µM in the assay with HCT-15 colon; 7.66 µM in the assay with K-562 leukemia; 7.59 µM in the assay with KM12 colon. Also, the TGI in the assay on MALME-3M melanoma worked out at 20.3 µM; with MDA-MB-435 it was 11.2 µM; with MOLT-4 leukemia, 6.33 µM; in the assay on OVCAR-4 ovarian, 16.4 µM; in the assay with PC-3 prostate it was 10.7 µM; in the assay with SF-539 CNS it was 19.2 µM. Moreover, the TGI with SK-MEL-2 melanoma stood at 5.93 µM; with SK-MEL-28 melanoma, 19.4 µM; in the assay on SK-OV-3 ovarian it was 22 µM; with SNB-75 CNS it was 10.9 µM; in the assay on SR leukemia, 4.27 µM; in the assay with T-47D breast, 13.7 µM. Besides, the figures for the TGI in the assay with TK-10 renal and in the assay with U251 CNS were 21.4 µM and 10.3 µM, respectively.

Regarding `Cc1cc(C)nc(NC(=S)Nc2cccc(Cl)c2)c1`, the TGI in the assay on A498 renal, with ACHN renal, in the assay with BT-549 breast, with HCT-15 colon, in the assay with K-562 leukemia and in the assay on KM12 colon was over 100 µM in each case. The TGI with MALME-3M melanoma, in the assay on MDA-MB-435, in the assay with MOLT-4 leukemia, in the assay on OVCAR-4 ovarian, in the assay with PC-3 prostate and in the assay on SF-539 CNS was over 100 µM each time. The TGI with SK-MEL-2 melanoma, with SK-MEL-28 melanoma, in the assay on SK-OV-3 ovarian, with SNB-75 CNS, in the assay with SR leukemia and in the assay with T-47D breast was over 100 µM in each case. For the same molecule, the TGI in the assay with TK-10 renal and in the assay with U251 CNS was over 100 µM in each case.

In the case of `C/C(=N/NC(=S)N1CCCCCC1)c1ccccc1O`, the TGI in the assay with A498 renal was over 74 µM; with ACHN renal, 39 µM; with BT-549 breast, over 100 µM; in the assay with HCT-15 colon it was over 100 µM; with K-562 leukemia, over 100 µM; in the assay on KM12 colon, over 53.7 µM. The TGI was over 49.8 µM in the assay with MALME-3M melanoma; over 100 µM with MDA-MB-435; 24.4 µM with MOLT-4 leukemia; over 33.9 µM in the assay with OVCAR-4 ovarian; over 100 µM in the assay on PC-3 prostate; 28.5 µM in the assay with SF-539 CNS. For the same molecule, the TGI in the assay on SK-MEL-2 melanoma was over 100 µM; in the assay with SK-MEL-28 melanoma it was over 100 µM; in the assay with SK-OV-3 ovarian, over 100 µM; in the assay with SNB-75 CNS, 69.1 µM; in the assay with SR leukemia, 4.57 µM; in the assay on T-47D breast, over 33.6 µM. Also, the TGI in the assay with TK-10 renal and in the assay with U251 CNS was over 100 µM each time.

Regarding `CCOC(=O)c1c(Nc2ccccc2)sc2cccnc12`, the TGI in the assay with A498 renal is 26.2 µM; with ACHN renal, over 88 µM; in the assay on BT-549 breast, 58.8 µM; in the assay with HCT-15 colon, 58.3 µM; in the assay with K-562 leukemia, 82.8 µM; in the assay on KM12 colon, 37.6 µM. The TGI amounted to 53.4 µM with MALME-3M melanoma; 54.6 µM with MDA-MB-435; 55.9 µM in the assay with MOLT-4 leukemia; 79.9 µM with OVCAR-4 ovarian; 65 µM in the assay with PC-3 prostate; 23.6 µM in the assay on SF-539 CNS. Also, the TGI was 49.5 µM with SK-MEL-2 melanoma; 63 µM in the assay with SK-MEL-28 melanoma; over 89.9 µM in the assay on SK-OV-3 ovarian; 59.3 µM in the assay on SNB-75 CNS; 59.6 µM with SR leukemia; over 100 µM with T-47D breast. For the same molecule, the TGI with TK-10 renal was 86.1 µM; with U251 CNS, over 57.9 µM.

As to `Cc1cc2c(cc1C)C(=O)c1ncccc1C2=O`, the TGI in the assay on A498 renal, in the assay with ACHN renal, in the assay on BT-549 breast, in the assay on HCT-15 colon, with K-562 leukemia and in the assay on KM12 colon was over 100 µM each time. The TGI with MALME-3M melanoma was 52.9 µM; in the assay on MDA-MB-435, 34.4 µM; in the assay on MOLT-4 leukemia, 74.2 µM; with OVCAR-4 ovarian, over 100 µM; with PC-3 prostate, over 100 µM; in the assay on SF-539 CNS, 90 µM. In addition, the TGI is over 100 µM with SK-MEL-2 melanoma; over 100 µM in the assay on SK-MEL-28 melanoma; over 100 µM in the assay with SK-OV-3 ovarian; over 100 µM with SNB-75 CNS; 25 µM in the assay with SR leukemia; over 100 µM in the assay on T-47D breast. Also, the TGI in the assay with TK-10 renal and in the assay on U251 CNS was over 100 µM each time.

For the molecule `C#CCn1c(=O)c(C)cn(/C(=C/C(=O)OCC)C(=O)OCC)c1=O`, the TGI in the assay on A498 renal is 31.5 µM; in the assay with ACHN renal it was 3.64 µM; in the assay on BT-549 breast it was 20.4 µM; in the assay on HCT-15 colon, 4.07 µM; in the assay on K-562 leukemia it was over 69.4 µM; in the assay on KM12 colon, 32 µM. For the same molecule, the TGI in the assay on MALME-3M melanoma stood at 4.07 µM; in the assay on MDA-MB-435, 20.5 µM; with MOLT-4 leukemia it was 30.6 µM; in the assay with OVCAR-4 ovarian, 19.3 µM; in the assay with PC-3 prostate, 25.7 µM; in the assay on SF-539 CNS, 4.77 µM. The TGI in the assay with SK-MEL-2 melanoma is 27.2 µM; in the assay with SK-MEL-28 melanoma, 19.7 µM; with SK-OV-3 ovarian, over 63.1 µM; in the assay with SNB-75 CNS it was 28.8 µM; with SR leukemia it was over 100 µM; in the assay on T-47D breast it was 20.3 µM. Also, the values for the TGI in the assay with TK-10 renal and with U251 CNS were 4.29 µM and 25.2 µM, respectively.

In the case of `C/C=C1/CN2CCC34C5=CC(=O)C(c6cc7c(cc6OC)N(C)C6=C(C(=O)OC)CC8(CC)CCCN9CCC67C98)=CC5=NC23CCC1C4C(=O)OC` (stereo not given), the TGI in the assay with A498 renal was 30.2 µM; with ACHN renal, 29.1 µM; in the assay with BT-549 breast, 29.7 µM; with HCT-15 colon it was 28.3 µM; with K-562 leukemia, 15.9 µM; in the assay on KM12 colon, 30.3 µM. The TGI in the assay on MALME-3M melanoma is 28.6 µM; with MDA-MB-435, 26 µM; in the assay on MOLT-4 leukemia it was 6.94 µM; with OVCAR-4 ovarian, 27.1 µM; in the assay on PC-3 prostate, 26 µM; with SF-539 CNS, 28 µM. Besides, the TGI in the assay with SK-MEL-2 melanoma was determined as 30.6 µM; with SK-MEL-28 melanoma, 31 µM; in the assay on SK-OV-3 ovarian, 30.9 µM; in the assay with SNB-75 CNS, 21.6 µM; with SR leukemia it was 6.63 µM; in the assay on T-47D breast, 29 µM. Moreover, the TGI with TK-10 renal is 30.9 µM; with U251 CNS, 28.6 µM.

Take `COC(=O)/C=C1/OC(c2ccc(Br)cc2)=C(Br)C1=O`: the TGI in the assay on A498 renal was determined as 30.4 µM; in the assay on ACHN renal, 16.8 µM; in the assay with BT-549 breast it was 11.7 µM; in the assay on HCT-15 colon it was 14.2 µM; in the assay on K-562 leukemia, 6.58 µM; with KM12 colon, 22.4 µM. Besides, the TGI was determined as 21.5 µM in the assay with MALME-3M melanoma; 20.9 µM in the assay on MDA-MB-435; 6.87 µM in the assay with MOLT-4 leukemia; 11.6 µM in the assay on OVCAR-4 ovarian; 17.5 µM with PC-3 prostate; 12.7 µM in the assay on SF-539 CNS. In addition, the TGI is 24.8 µM with SK-MEL-2 melanoma; 27.2 µM in the assay on SK-MEL-28 melanoma; 38.2 µM in the assay with SK-OV-3 ovarian; 17.5 µM in the assay on SNB-75 CNS; 3.31 µM with SR leukemia; 15.1 µM with T-47D breast. Also, the TGI is 17.6 µM in the assay on TK-10 renal and 6.88 µM in the assay with U251 CNS.
